The source of these data is ChEMBL document CHEMBL4308886, “Molecular features characterizing non-peptide selectivity to the human B1 and B2 bradykinin receptors” (Bioorg Med Chem Lett, 2019).

One may read the inhibition as how much of the control response was suppressed.

Structures are written as SMILES.

The target of the first experiment is T1, B1 bradykinin receptor (Homo sapiens) (UniProt P46663).
T1 sequence (whole entry): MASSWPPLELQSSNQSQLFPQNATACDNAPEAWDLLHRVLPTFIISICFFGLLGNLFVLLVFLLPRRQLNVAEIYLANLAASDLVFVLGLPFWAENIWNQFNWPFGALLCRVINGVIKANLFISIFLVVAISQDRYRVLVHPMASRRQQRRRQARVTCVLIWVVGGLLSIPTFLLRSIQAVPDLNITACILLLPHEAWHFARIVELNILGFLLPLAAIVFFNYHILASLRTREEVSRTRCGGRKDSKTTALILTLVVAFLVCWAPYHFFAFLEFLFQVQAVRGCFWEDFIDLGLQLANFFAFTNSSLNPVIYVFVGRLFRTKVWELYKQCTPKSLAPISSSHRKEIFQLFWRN
Nature of the experiment: Displacement of [3H][…] from human recombinant bradykinin B1 receptor expressed in CHO cells at 50 uM measured after 1 hr relative to control. Type of experiment: cell-based. For orientation: In a radioligand displacement assay an active substance lowers the binding of a labelled ligand.
On to `COc1cc(NCCCCCCCC2CCCCN2)c2ncccc2c1` (configuration not stated), for which the inhibition amounted to 46%.
On to `COc1cc(NC(C)CCCN)c2nc(C)ccc2c1OC1CCC(F)CC1` (configuration not stated), for which the inhibition stood at 12%.
On to `COc1cc(NCCCCCCC2CCCCN2)c2ncccc2c1` (configuration not stated), for which the inhibition stood at 31%.

The target in a further experiment is T2, B2 bradykinin receptor (Homo sapiens) (UniProt P30411).
T2 sequence (whole entry): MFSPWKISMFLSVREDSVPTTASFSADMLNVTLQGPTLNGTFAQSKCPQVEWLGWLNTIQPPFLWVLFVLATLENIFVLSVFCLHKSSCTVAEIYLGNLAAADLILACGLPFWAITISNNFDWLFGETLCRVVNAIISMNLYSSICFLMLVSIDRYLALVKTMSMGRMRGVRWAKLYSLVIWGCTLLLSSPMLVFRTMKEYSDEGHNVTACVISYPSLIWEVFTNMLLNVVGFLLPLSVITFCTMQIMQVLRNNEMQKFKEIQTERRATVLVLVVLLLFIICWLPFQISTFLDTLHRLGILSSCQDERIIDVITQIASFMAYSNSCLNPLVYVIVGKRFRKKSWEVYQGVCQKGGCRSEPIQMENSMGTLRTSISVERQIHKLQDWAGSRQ
Nature of the experiment: Displacement of [3H]bradykinin from human recombinant bradykinin B2 receptor expressed in CHO cells at 50 uM measured after 1 hr relative to control. Type of experiment: cell-based.
For the molecule `COc1cc(NCCCCCCCC2CCCCN2)c2ncccc2c1` (configuration not stated), the inhibition worked out at 65%.
Take `COc1cc(NC(C)CCCN)c2nc(C)ccc2c1OC1CCC(F)CC1` (configuration not stated): the inhibition turned out to be 45%.
On the same count and under the same terms, the figure for `CC1CCC(N2NC(=O)/C(=C\c3cccn3-c3ccc(S(N)(=O)=O)cc3)C2=O)CC1Cl` (configuration not stated) is 41%; for `COc1cc(NCCCCCCC2CCCCN2)c2ncccc2c1` (configuration not stated) it is 36%.

In the next experiment the target is T1, B1 bradykinin receptor (Homo sapiens). Nature of the experiment: Displacement of [3H][…] from human recombinant bradykinin B1 receptor expressed in CHO cells at 10 uM measured after 1 hr relative to control. Type of experiment: cell-based.
As to `Cc1ccc(NC2=NC(=O)/C(=C/c3ccc(-c4ccc(C(=O)O)cc4)o3)S2)cc1Cl`, the inhibition worked out at 14%.
`CC1=C(C#N)C(=O)N(CCc2c[nH]c3ccccc23)C(=O)/C1=C\Nc1ccc(S(N)(=O)=O)cc1`: the inhibition came to 32%.
For `CC1CCC(N2NC(=O)/C(=C\c3cccn3-c3ccc(S(N)(=O)=O)cc3)C2=O)CC1Cl` (configuration not stated), the inhibition was found to be 31%.

A further experiment deals with T2, B2 bradykinin receptor (Homo sapiens). Nature of the experiment: Displacement of [3H]bradykinin from human recombinant bradykinin B2 receptor expressed in CHO cells at 10 uM measured after 1 hr relative to control. Type of experiment: cell-based.
On to `Cc1ccc(NC2=NC(=O)/C(=C/c3ccc(-c4ccc(C(=O)O)cc4)o3)S2)cc1Cl`, for which the inhibition is 33%.
Take `CC1=C(C#N)C(=O)N(CCc2c[nH]c3ccccc23)C(=O)/C1=C\Nc1ccc(S(N)(=O)=O)cc1`: the inhibition amounted to 34%.
